Assay results reported in patent US10774074B2, “2-(1-heteroarylpiperazin-4-yl)methyl-1,4-benzodioxane derivatives as alpha2C antagonists” (ORION CORPORATION, priority 2015, dated 2020).
pIC50: −log10 of the molar value. Structures can show the parent of a compound that is named as a salt.

Key:
human alpha2C receptors = molecular target: T1, human alpha2C receptors (Homo sapiens, UniProt P18825); experiment: Determination of alpha2C antagonistic activity in vitro (FLIPR calcium assay, CHO cells); type: cell-based; conditions: for Kb: Kb calculated with the Cheng-Prusoff equation from IC50, adrenaline as agonist, CHO cells, human alpha2C, read-out: Alpha 2C Adrenaline Kb; for pIC50: antagonism of adrenaline stimulation, CHO cells stably transfected with human alpha2C receptor and Gα16, intracellular calcium (FLIPR), read-out: Alpha 2C Adrenaline IC50
T1 construct: host or cells: CHO cells, cotransfected with pCEP-Gα16
T1 sequence (P18825 1-462): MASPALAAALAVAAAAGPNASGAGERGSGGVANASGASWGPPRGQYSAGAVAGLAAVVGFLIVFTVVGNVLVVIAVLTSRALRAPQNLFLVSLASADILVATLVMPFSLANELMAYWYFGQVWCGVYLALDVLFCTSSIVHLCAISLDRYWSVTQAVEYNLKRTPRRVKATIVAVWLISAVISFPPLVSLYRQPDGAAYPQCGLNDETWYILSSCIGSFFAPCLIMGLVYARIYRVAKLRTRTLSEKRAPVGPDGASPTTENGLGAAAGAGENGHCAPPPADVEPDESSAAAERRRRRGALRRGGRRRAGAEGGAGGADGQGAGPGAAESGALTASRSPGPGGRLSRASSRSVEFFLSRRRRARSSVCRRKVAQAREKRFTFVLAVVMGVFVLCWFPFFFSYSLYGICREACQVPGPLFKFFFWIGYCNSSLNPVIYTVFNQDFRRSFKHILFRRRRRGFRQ
Method: (§1) EXPERIMENT 1: Determination of alpha2A and alpha2C Antagonistic Activity In Vitro
(§2) Chinese hamster ovary (CHO) cells stably transfected with human alpha2A or alpha2C receptors (University of Turku, Finland) were cotransfected with the expression vector pCEP-Gα16 (Molecular Devices, CA, USA) were used in this experiment. The cells were maintained at 37° C. in a 5% CO2/95% air atmosphere. The cells were cultured in HAM F-12 medium supplemented with 10% FCS, 25 mM HEPES, 100 IU/ml penicillin, 100 µg/ml streptomycin, 500 μg/ml geneticin and 240 μg/ml hygromycin B. The cells were subcultured twice weekly with 0.25% trypsin and 1 mM EDTA. The subculture ratio was 1:5-1:20. The growth medium was changed every 2 or 3 days. All cell culture reagents were from Gibco. The day before the experiment the cells were plated into black-walled, clear bottom 384-well plates at a density of 10,000 cells/well.
(§3) The growth medium was removed and the cells were incubated with the test compounds and the FLIPR Calcium 6 Assay reagent (Molecular Devices, CA, USA) for 2 h at 37° C. in dark. The test compounds (concentrations in cells 100 pM-10 μM) were dissolved in Probenecid-Ringer consisting of 150 mM NaCl, 3 mM KCl, 1.2 mM MgCl2, 1 mM CaCl2, 5 mM glucose, 20 mM HEPES and 2.5 mM probenecid (pH 7.4 adjusted with 1.0 M NaOH). The osmolarity was adjusted to 322 milliosmoles with Osmostat® OM-6020 osmometer (DIC Kyoto Daiichi Kagagu Co. Ltd, Japan). […] All experiments were performed at 37° C. For agonism measurements the test compounds dissolved in Probenecid-Ringer were applied by FLIPR Tetra at 15 s time point. In order to determine antagonism, the cells were stimulated either with 100 nM adrenaline or noradrenaline and the test compounds were added to the cells 2 h before the experiment with the FLIPR Calcium 6 Assay reagent. […] Typically, there were four replicates at each concentration and six different dose levels. For example, if the number of plates from which results were obtained was three, 72 (4*6*3) wells were thus measured to construct dose-response relationship. The samples were excited at 485 nm and emission was detected at 525 nm with a 515 nm cut-off filter. The minimum fluorescence value subtracted from the maximum value for each well was used in the calculations. ScreenWorks version 4.0 software was used for analyzing the results. Fitting of the antagonist dose-response results was performed with the free Hill equation and the IC50 values were fitted with IDBS XE software using model 200: y=(A+(B/(1+((x/C)^D)))), where A is the curve maximum, B the curve minimum and C equals the EC50 value. D is slope factor (Hill). Kb was calculated with the Cheng-Prusoff equation Kb=A/((B/C)+1), where A is the IC50 of antagonist, B the concentration of agonist and C the EC50 of the agonist.

human alpha2A receptors = molecular target: T2, human alpha2A receptors (Homo sapiens, UniProt P08913); experiment: Determination of alpha2A antagonistic activity in vitro (FLIPR calcium assay, CHO cells); type: cell-based; conditions: for Kb: Kb calculated with the Cheng-Prusoff equation from IC50, adrenaline as agonist, CHO cells, human alpha2A, read-out: Alpha 2A Adrenaline Kb; for pIC50: antagonism of adrenaline stimulation, CHO cells stably transfected with human alpha2A receptor and Gα16, intracellular calcium (FLIPR), read-out: Alpha 2A Adrenaline IC50
T2 construct: host or cells: CHO cells, cotransfected with pCEP-Gα16
T2 sequence (P08913 1-465): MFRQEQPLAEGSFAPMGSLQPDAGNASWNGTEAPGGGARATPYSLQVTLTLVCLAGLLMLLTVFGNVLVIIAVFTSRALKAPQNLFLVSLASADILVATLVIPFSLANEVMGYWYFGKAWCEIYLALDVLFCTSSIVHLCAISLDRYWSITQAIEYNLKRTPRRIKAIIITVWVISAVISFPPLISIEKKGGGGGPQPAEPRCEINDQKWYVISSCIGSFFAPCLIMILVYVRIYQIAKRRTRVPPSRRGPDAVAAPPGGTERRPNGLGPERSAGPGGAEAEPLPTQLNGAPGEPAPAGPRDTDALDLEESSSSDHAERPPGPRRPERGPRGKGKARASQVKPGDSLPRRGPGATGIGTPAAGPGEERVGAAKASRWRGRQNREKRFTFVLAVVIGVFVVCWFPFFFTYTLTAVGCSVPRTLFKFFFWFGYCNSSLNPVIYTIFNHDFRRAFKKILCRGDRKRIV
Method: as §1, §2, §3

Row | Compound | Kb (human alpha2C receptors) | pIC50 (human alpha2C receptors) | Kb (human alpha2A receptors) | pIC50 (human alpha2A receptors)
1 | Cc1c(N2C(=O)CC(C)(C)C2=O)c(N2CCN(C[C@H]3COc4ccccc4O3)CC2)nn1C [Compound of example 1, (S)-1-(3-(4-((2,3-Dihydrobenzo[b][1,4]dioxin-2-yl)methyl)piperazin-1-yl)-1,5-dimethyl-1H-pyrazol-4-yl)-3,3-dimethylpyrrolidine-2,5-dione] | < 0.1 nM | > 11.00 |  | 
2 | Cc1c(N2C(=O)c3ccccc3C2=O)c(N2CCN(C[C@H]3COc4ccccc4O3)CC2)nn1C [Compound of example 2, (S)-2-(3-(4-((2,3-Dihydrobenzo[b][1,4]dioxin-2-yl)methyl)piperazin-1-yl)-1,5-dimethyl-1H-pyrazol-4-yl)isoindoline-1,3-dione] | < 0.1 nM | > 11.00 | < 0.004 nM | > 10.00
3 | Cc1nc(C#N)c(N2CCN(C[C@H]3COc4ccccc4O3)CC2)o1 [Compound of example 3, (S)-5-(4-((2,3-Dihydrobenzo[b][1,4]dioxin-2-yl)methyl)piperazin-1-yl)-2-methyloxazole-4-carbonitrile] | 912 nM | 7.04 | > 449 nM | < 5.00
4 | Cc1c(N2CCC2=O)c(N2CCN(C[C@H]3COc4ccccc4O3)CC2)nn1C [Compound of example 4, (S)-1-(3-(4-((2,3-Dihydrobenzo[b][1,4]dioxin-2-yl)methyl)piperazin-1-yl)-1,5-dimethyl-1H-pyrazol-4-yl)azetidin-2-one] | 0.13 nM | 11.00 | 217 nM | 
5 | Cc1c(N2CCOC2=O)c(N2CCN(C[C@H]3COc4ccccc4O3)CC2)nn1C [Compound of example 5, (S)-3-(3-(4-((2,3-Dihydrobenzo[b][1,4]dioxin-2-yl)methyl)piperazin-1-yl)-1,5-dimethyl-1H-pyrazol-4-yl)oxazolidin-2-one] | 1 nM | 10.00 | 206 nM | 5.34
6 | Cc1c(N2CC(C)(C)NC2=O)c(N2CCN(C[C@H]3COc4ccccc4O3)CC2)nn1C [Compound of example 6, (S)-1-(3-(4-((2,3-Dihydrobenzo[b][1,4]dioxin-2-yl)methyl)piperazin-1-yl)-1,5-dimethyl-1H-pyrazol-4-yl)-4,4-dimethylimidazolidin-2-one] | < 0.1 nM | > 11.00 |  | 
7 | Cc1c(N2CC(C)(C)N(C)C2=O)c(N2CCN(C[C@H]3COc4ccccc4O3)CC2)nn1C [Compound of example 7, (S)-1-(3-(4-((2,3-Dihydrobenzo[b][1,4]dioxin-2-yl)methyl)piperazin-1-yl)-1,5-dimethyl-1H-pyrazol-4-yl)-3,4,4-trimethylimidazolidin-2-one] | < 0.1 nM | > 11.00 |  | 
8 | COCc1scnc1N1CCN(C[C@H]2COc3ccccc3O2)CC1 [Compound of example 8, (S)-4-(4-((2,3-Dihydrobenzo[b][1,4]dioxin-2-yl)methyl)piperazin-1-yl)-5-(methoxymethyl)thiazole] | < 0.1 nM | > 11.00 | 88 nM | 5.71
9 | Cc1c(N2CCNC2=O)c(N2CCN(C[C@H]3COc4ccccc4O3)CC2)nn1C [Compound of example 9, (S)-1-(3-(4-((2,3-Dihydrobenzo[b][1,4]dioxin-2-yl)methyl)piperazin-1-yl)-1,5-dimethyl-1H-pyrazol-4-yl)imidazolidin-2-one] | 0.55 nM | 10.22 | > 449 nM | < 5.00
10 | c1ccc(-n2nccc2N2CCN(C[C@H]3COc4ccccc4O3)CC2)nc1 [Compound of example 10, (S)-1-((2,3-Dihydrobenzo[b][1,4]dioxin-2-yl)methyl)-4-(1-(pyridin-2-yl)-1H-pyrazol-5-yl)piperazine] | 1.14 nM | 9.95 | 350 nM | 5.11
11 | COCc1c(N2CCN(C[C@H]3COc4ccccc4O3)CC2)nn(C)c1C [Compound of example 11, (S)-1-((2,3-Dihydrobenzo[b][1,4]dioxin-2-yl)methyl)-4-(4-(methoxymethyl)-1,5-dimethyl-1H-pyrazol-3-yl)piperazine] | 1.62 nM | 9.78 | 306 nM | 5.17
12 | CCOC(=O)c1c(N2CCN(C[C@H]3COc4ccccc4O3)CC2)nn(C)c1C [Compound of example 12, (S)-Ethyl 3-(4-((2,3-dihydrobenzo[b][1,4]dioxin-2-yl)methyl)piperazin-1-yl)-1,5-dimethyl-1H-pyrazole-4-carboxylate] | 2.13 nM | 9.68 | 120 nM | 5.57
13 | Cc1c(C(C)(C)O)c(N2CCN(C[C@H]3COc4ccccc4O3)CC2)nn1C [Compound of example 13, (S)-2-(3-(4-((2,3-Dihydrobenzo[b][1,4]dioxin-2-yl)methyl)piperazin-1-yl)-1,5-dimethyl-1H-pyrazol-4-yl)propan-2-ol] | 2.93 nM | 9.52 | 43 nM | 6.02
14 | Cc1c(N2CCCC2=O)c(N2CCN(C[C@H]3COc4ccccc4O3)CC2)nn1C [Compound of example 14, (S)-1-(3-(4-((2,3-Dihydrobenzo[b][1,4]dioxin-2-yl)methyl)piperazin-1-yl)-1,5-dimethyl-1H-pyrazol-4-yl)pyrrolidin-2-one] | 0.29 nM | 10.52 | 382 nM | 5.07
15 | Cc1c(N2CCN(C)C2=O)c(N2CCN(C[C@H]3COc4ccccc4O3)CC2)nn1C [Compound of example 15, (S)-1-(3-(4-((2,3-Dihydrobenzo[b][1,4]dioxin-2-yl)methyl)piperazin-1-yl)-1,5-dimethyl-1H-pyrazol-4-yl)-3-methylimidazolidin-2-one] | 1.64 nM | 9.77 | > 449 nM | < 5.00
16 | Cc1nc(N2CCN(C[C@H]3COc4ccccc4O3)CC2)c(N2C(=O)CC(C)(C)C2=O)s1 [Compound of example 32, (S)-1-(4-(4-((2,3-Dihydrobenzo[b][1,4]dioxin-2-yl)methyl)piperazin-1-yl)-2-methylthiazol-5-yl)-3,3-dimethylpyrrolidine-2,5-dione hydrochloride] | < 0.1 nM | > 11.00 |  | 
17 | (S)-4-(4-((2,3-Dihydrobenzo[b][1,4]dioxin-2-yl)methyl)piperazin-1-yl)-N-(pyridin-4-yl)-1,2,5-thiadiazol-3-amine dihydrochloride [Compound of example 35] |  |  | 275 nM | 5.21
